The results in this text go back to patent US20260274814A1, “THIENYL COMPOUNDS FOR THE TREATMENT OF A CENTRAL NERVOUS SYSTEM DISEASE OR DISORDER” (Coreterra Therapeutics, Inc., priority 2023, published 2026).

The assay concerns mice. The experiment in a line: Neuropharmacological Assay (SmartCube): automated behavioral signature of compound-treated mice compared with a database of reference drug classes. Format: in vivo. The settings on record: for minimal effective dose: Mus musculus, ip; for minimal effective dose / MED (minimal effective dose) / MED: i.p., that dose is shown. In short, it runs like this:
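i.p. dosing 15 min pre-test (NMP/PEG/propylene glycol vehicle); 3 doses, 3.0 mg/kg reported. Output = class-match probability per behavioural effect. Potency runs 0.3, 1, 3, 10 mpk (range adjusted as needed); MED = dose with ≥45% total activity.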

The mark [1] stands for this setting: minimal effective dose: dose having 45% or more total activity in SmartCube, if only one dose tested, read-out: MED.
[2] abbreviates: SmartCube class probability, 3.0 mg/kg i.p., 15 min before test.
Where [3] appears, read: SmartCube class probability, 3.0 mg/kg i.p., 15 min before test, hydrochloride, 3 mg/kg.
Where [4] appears, read: probability that activity matches this class of agents, 3.0 mg/kg i.p., 15 min before test.
Setting [5] is: probability that activity matches this class of agents, 3.0 mg/kg i.p., 15 min before test, hydrochloride, 3 mg/kg.
Where [6] appears, read: SmartCube probability class, 3.0 mg/kg dose, i.p. 15 min before the behavioral test.
The mark [7] stands for this setting: minimal effective dose: dose having 45% or more total activity in SmartCube, if only one dose was tested.
[8] abbreviates: SmartCube probability class, 3.0 mg/kg dose, i.p. 15 min before the behavioral test, hydrochloride, 3 mg/kg.

Structures can show the parent of a compound that is named as a salt. Where two headings read alike, the source gives them in different places. Where only a bound is given, the exact number is not on record here.

As for `CNC1CCc2sc(C3CC3)cc2C1` (single isomer, unassigned) [Compound 183, 2-cyclopropyl-N-methyl-4,5,6,7-tetrahydrobenzothiophen-5-amine hydrochloride], the minimal effective dose under setting [1] was 3 mg/kg. Further, under setting [2], the AD result is “ND (^ <4%)”, the AG result is on record as “ND (^ <4%)”, the AN entry is reported as “ND (^ <4%)” and the AP result is reported as “ND (^ <4%)”. In addition, under setting [2], the AX result was “ND (^ <4%)”, the CE entry is “ND (^ <4%)”, the HL entry is “ND (^ <4%)” and the MS result is “ND (^ <4%)”. Further, under setting [2], the PS entry is given as “ND (^ <4%)”, the SH result is recorded as “ND (^ <4%)” and the UK entry is “++ (≥24%)”.
Turning to `NC1CCc2scc(C3CC3)c2C1` (single isomer, unassigned) [Compound 277, 3-cyclopropyl-4,5,6,7-tetrahydrobenzothiophen-5-amine hydrochloride], the minimal effective dose under setting [1] is over 3 mg/kg. Further, under setting [2], the AD result is “ND (^ <4%)”, the AG result is “ND (^ <4%)”, the AN entry is recorded as “ND (^ <4%)” and the AP entry was “ND (^ <4%)”. Under setting [2], the AX entry is recorded as “ND (^ <4%)”, the CE result is given as “ND (^ <4%)”, the HL result is reported as “ND (^ <4%)” and the MS result is “ND (^ <4%)”. In addition, under setting [2], the PS entry is “ND (^ <4%)”, the SH entry is given as “ND (^ <4%)” and the UK entry is given as “+ (≥4%)”.
Take `NC1CCc2scc(C(F)(F)F)c2C1` (single isomer, unassigned) [Compound 254, 3-(trifluoromethyl)-4,5,6,7-tetrahydrobenzothiophen-5-amine hydrochloride]: under setting [1], the minimal effective dose was over 3 mg/kg. For the same molecule, under setting [2], the AD result is on record as “ND (^ <4%)”, the AG entry is “ND (^ <4%)”, the AN entry is listed as “ND (^ <4%)” and the AP entry is recorded as “ND (^ <4%)”. Moreover, under setting [2], the AX result is “ND (^ <4%)”, the CE entry is “ND (^ <4%)”, the HL entry is recorded as “ND (^ <4%)” and the MS result is “ND (^ <4%)”. Besides, under setting [2], the PS entry is given as “ND (^ <4%)” and the SH entry is “ND (^ <4%)”. Moreover, under setting [3], the UK entry was “+ (≥4%)”.
As to `Cc1csc2c1CCC(N)C2` (single isomer, unassigned) [Compound 65, 3-methyl-4,5,6,7-tetrahydrobenzothiophen-6-amine hydrochloride], the “MED (minimal effective dose)” value (dose having 45% or more total activity in SmartCube, if only one dose was tested, hydrochloride) turned out to be 3 mpk. Also, under setting [4], the AG result was “ND (^ <4%)”, the AN result was “ND (^ <4%)”, the AX entry is “ND (^ <4%)” and the CE entry was “ND (^ <4%)”. Further, under setting [4], the MS entry is “ND (^ <4%)”, the SH result is “ND (^ <4%)” and the UK entry is on record as “ND (^ <4%)”. For the same molecule, under setting [5], the AD result is listed as “+++ (≥49%)”, the AP result was “ND (^ <4%)”, the HL entry is given as “+ (≥4%)” and the PS result is “+ (≥4%)”.
Consider `CNC1COc2scc(C(F)(F)F)c2C1` (single isomer, unassigned) [Compound 290, N-methyl-5-(trifluoromethyl)-3,4-dihydro-2H-thieno[2,3-b]pyran-3-amine hydrochloride], for which, under setting [6], the AD result is listed as “ND (^ <4%)” and the UK entry is listed as “+ (≥4%)”. For the same molecule, under setting [7], the MED is recorded as over 3 mpk.
Take `CNC1Cc2cc(C)sc2C1` (single isomer, unassigned) [Compound 319, N, 2-dimethyl-5,6-dihydro-4H-cyclopenta[b]thiophen-5-amine hydrochloride]: under setting [6], the AD result is “ND (^ <4%)”, the AG entry was “ND (^ <4%)”, the AN entry is on record as “ND (^ <4%)” and the HL entry is recorded as “ND (^ <4%)”. Further, under setting [6], the MS entry is listed as “ND (^ <4%)”, the PS entry was “ND (^ <4%)” and the SH result is recorded as “ND (^ <4%)”. For the same molecule, under setting [8], the AP result is reported as “ND (^ <4%)”, the AX result was “++++ (≥74%)”, the CE result was “+ (≥4%)” and the UK entry is “ND (^ <4%)”. Under setting [7], this molecule gave an MED of 3 mpk.
Take `CCc1sc(CC)c2c1CCC(NC)C2` (single isomer, unassigned) [Compound 118, 1,3-diethyl-N-methyl-4,5,6,7-tetrahydro-2-benzothiophen-5-amine hydrochloride]: the “MED (minimal effective dose)” value (dose having 45% or more total activity in SmartCube, if only one dose was tested) is given as over 3 mpk. Under setting [4], the AD entry is reported as “ND (^ <4%)”, the AG result is “ND (^ <4%)”, the AN entry is on record as “ND (^ <4%)” and the AP result is listed as “ND (^ <4%)”. Further, under setting [4], the AX result is on record as “ND (^ <4%)”, the CE result is “ND (^ <4%)”, the HL entry was “ND (^ <4%)” and the MS result is on record as “ND (^ <4%)”. Under setting [4], the PS entry is on record as “ND (^ <4%)” and the SH result is listed as “ND (^ <4%)”. Moreover, the UK result under setting [5] is listed as “+ (≥4%)”.
On to `CNC1(C)CCc2cscc2C1` (racemic) [Compound 103, racemic N, 5-dimethyl-6,7-dihydro-4H-2-benzothiophen-5-amine hydrochloride], for which, where the note is “dose having 45% or more total activity in SmartCube, if only one dose was tested, read-out: MED (minimal effective dose)”, the minimal effective dose was found to be 1 mg/kg. Besides, under setting [4], the AD result is “ND (^ <4%)”, the AG entry is “ND (^ <4%)”, the AN entry is “ND (^ <4%)” and the AP result was “ND (^ <4%)”. In addition, under setting [4], the AX result was “ND (^ <4%)”, the CE result is reported as “ND (^ <4%)”, the HL result is given as “ND (^ <4%)” and the MS result is listed as “ND (^ <4%)”. Besides, under setting [4], the PS entry was “ND (^ <4%)”, the SH result is on record as “ND (^ <4%)” and the UK result is listed as “+++ (≥49%)”.
Turning to `CNC1COc2scc(C(F)(F)F)c2C1` (racemic) [Compound 288, N-methyl-5-(trifluoromethyl)-3,4-dihydro-2H-thieno[2,3-b]pyran-3-amine hydrochloride], the minimal effective dose (minimal effective dose: dose having 45% or more total activity in SmartCube, if only one dose was tested, read-out: MED) was over 3 mg/kg. In addition, under setting [6], the AD entry is on record as “ND (^ <4%)”, the AG result is “ND (^ <4%)”, the AN result was “ND (^ <4%)” and the AP entry is “ND (^ <4%)”. Also, under setting [6], the AX entry is on record as “ND (^ <4%)”, the CE result is listed as “ND (^ <4%)”, the HL entry is listed as “ND (^ <4%)” and the MS result is reported as “ND (^ <4%)”. Further, under setting [6], the PS entry is on record as “ND (^ <4%)”, the SH result is listed as “ND (^ <4%)” and the UK result is on record as “ND (^ <4%)”.
For the molecule `N#Cc1scc2c1CC(N)CC2` (stereo not drawn) [Compound 204, 6-amino-4,5,6,7-tetrahydro-2-benzothiophene-1-carbonitrile hydrochloride], the minimal effective dose under setting [1] was found to be 3 mg/kg. Also, under setting [2], the AD result is reported as “ND (^ <4%)”, the AG entry is “ND (^ <4%)”, the AN result is on record as “ND (^ <4%)” and the AP result is on record as “++++ (≥74%)”. Under setting [2], the AX result is recorded as “ND (^ <4%)”, the CE result was “ND (^ <4%)”, the HL result is on record as “ND (^ <4%)” and the MS result is recorded as “ND (^ <4%)”. Moreover, under setting [2], the PS result is “ND (^ <4%)”, the SH entry is listed as “ND (^ <4%)” and the UK result is reported as “ND (^ <4%)”.
Regarding `CNC1(C)CCc2cc(C(F)(F)F)sc2C1.Cl` (single isomer, unassigned) [Compound 245, N, 6-dimethyl-2-(trifluoromethyl)-5,7-dihydro-4H-benzothiophen-6-amine hydrochloride], the minimal effective dose under setting [1] worked out at 3 mg/kg. Under setting [2], the AG result was “ND (^ <4%)”, the AN result was “ND (^ <4%)”, the AX entry was “ND (^ <4%)” and the CE entry was “ND (^ <4%)”. In addition, under setting [2], the HL entry is listed as “ND (^ <4%)”, the MS result is given as “ND (^ <4%)”, the PS entry is recorded as “ND (^ <4%)” and the SH entry was “ND (^ <4%)”. Also, under setting [3], the AD entry is listed as “++ (≥24%)”, the AP result is given as “ND (^ <4%)” and the UK entry was “+ (≥4%)”.
As for `CNC1CCc2scc(C3CC3)c2C1` (single isomer, unassigned) [Compound 250, 3-cyclopropyl-N-methyl-4,5,6,7-tetrahydrobenzothiophen-5-amine hydrochloride], under setting [2], the AD result is “ND (^ <4%)”, the AG result was “ND (^ <4%)”, the AN entry is recorded as “ND (^ <4%)” and the CE result was “ND (^ <4%)”. Under setting [2], the HL result is recorded as “ND (^ <4%)”, the MS result is “ND (^ <4%)”, the PS result was “ND (^ <4%)” and the SH entry is on record as “ND (^ <4%)”. Under setting [3], the AP result was “+ (≥4%)”, the AX entry was “++++ (≥74%)” and the UK result was “ND (^ <4%)”. This molecule displayed an MED (minimal effective dose: dose having 45% or more total activity in SmartCube, if only one dose tested) of 3 mpk.
